According to patent publication US20230272460A1, “Method for Targeted Nucleic Acid Cleavage” (Cambridge Enterprise Limited, priority 2020, published 2023):

System: 18S and BRD4 transcripts in MOLM13 cells
Assay: Cellular RNA degradation reactions (acCLICK-Seq), RT-qPCR
Format: cell-based, human
Method: MOLM13 cells were suspended RPMI-1640 media (Gibco) supplemented with 10% v/v FBS and 1% v/v penicillin/streptomycin/L-glutamine at a density of 1,000,000 cells mL^-1. The cells were incubated for 30 min at 37° C. followed by addition of ethyl-3-butynoate at a final concentration of 200 μM. Treated cells were incubated for further 24 h at 37° C. […] Levels of specific RNAs were measured using fast mode of QuantStudio 3 Real-Time PCR System (Applied Biosystems) and PowerUpTM SYBR Green Master Mix (Applied Biosystems) according to the manufacturer's instructions. In the qPCR analysis RNA levels were normalised to the 5S gene ([…]) or the GAPDH gene (glycoCLICK-seq). These housekeeping gene was chosen as their levels fluctuated the least under various conditions tested.

## C#CCC(=O)OCC [ethyl-3-butynoate, Ethyl-3-butynoate]
WT MOLM13, ethyl-3-butynoate 200 μM 24 h, then click-degrader 1 400 μM CuAAC
  relative expression levels of 18S and BRD4 transcripts, clicked versus non-clicked control cells: reduction
Cells with NAT10 knocked-out
  expression levels of 18S and BRD4 transcripts in clicked cells: rescued
